Data set [1] is described as follows: CD in SUVs, ratio of ellipticities at 222 and 208 nm. Type of data set: physicochemical. The note with it: peptide 8 μM, lipid 100 μM, phosphate buffer 5 mM pH 7.4, 25 °C, >1.0 indicates oligomeric helices. The text has this:
TEXT PRINTED IN THE PICTURE: (c) 9: DOPG/CL mimicking Gram-positive membrane: θ222/ θ208: 1.7 | (c) 12: DOPG/CL mimicking Gram-positive membrane: θ222/ θ208: 2.6 | (c) 17: DOPG/CL mimicking Gram-positive membrane: θ222/ θ208: 1.9 | (f) 9: DOPE/DOPG/CL mimicking Gram-negative membrane: θ222/ θ208: 1.8 | (f) 12: DOPE/DOPG/CL mimicking Gram-negative membrane: θ222/ θ208: 2.1 | (f) 17: DOPE/DOPG/CL mimicking Gram-negative membrane: θ222/ θ208: 1.7
The ratio of the ellipticities at 222 and 208 nm was calculated to discriminate between monomeric and oligomeric states of helices.[64] As observed in our CD spectra, the ratio θ222/θ208 is always greater than 1.0 in both membranes, indicating an α-helical conformation in its oligomeric state (Figure 4c,f).
SUVs were prepared as reported: lipids (Gram-positive, DOPG/CL, 58/42 ratio in moles; Gram-negative DOPG/DOPE/CL, 63/23/12 ratio in moles) were dissolved in chloroform and an identical volume of peptide solution dissolved in TFE was added.[76] Then, the samples were vortexed and lyophilized overnight. CD spectra were recorded at a peptide concentration of 8 μM and at a lipid final concentration of 100 μM. […] CD spectra were recorded at 25 °C on a Jasco J-715 spectropolarimeter in a 1 cm quartz cell using three consecutive scans from 260 to 190 nm, 3 nm bandwidth, a time constant of 16 s, and a scan rate of 10 nm/min.

Data set [2] has as its system S. aureus MRSA ATCC 43300. As to the kind of experiment: In vitro time kill assay. The note with it: 10^6 CFU/mL, peptide at the MIC (12.5 μM peptide 12; 25 μM peptide 9), 37 °C, CFU counts. Type of data set: cell-based, Staphylococcus aureus. On the procedure:
(§1) Thus, 12 was further tested against S. aureus ATCC 43300, a methicillin-resistant strain (MRSA), and compared with the linear precursor 9. […] No growth was observed after 24 h. Peptide 9 was bactericidal as well, by killing MRSA within 10 min, but at a higher concentration (25 μM).
Figure 7 In vitro time kill assay. […] The inhibitory effect on bacterial growth was assessed by measuring the number of CFU obtained after the treatment.
The plates were incubated at 37 °C on an orbital shaker at 120 rpm. Viability assessments were performed at 10 min, 30 min, 1 h, 2 h, and 24 h by plating 0.01 mL of undiluted and 10-fold serially diluted samples onto Mueller–Hinton plates in triplicate. After overnight incubation at 37 °C, bacterial colonies were counted and compared with counts from control cultures.

Data set [3] deals with S. aureus ATCC 43300, a methicillin-resistant strain (MRSA). The data set is classed as cell-based, Staphylococcus aureus. The method, then: as §1
The bacterial strains used in the antimicrobial assays were the Gram-negative E. coli ATCC 25922, P. aeruginosa ATCC 27853, A. baumannii ATCC 19606, the Gram-positive S. aureus ATCC 25923, S. epidermidis ATCC 12228, and B. megaterium Bm11. Methicillin-resistant S. aureus (MRSA) ATCC 43300 was obtained from Culture Collection Center of School of Basic Medical Sciences of Lanzhou University (China).
The determination of MICs was conducted as previously reported.[61] Aliquots of 50 μL of bacterial culture appropriately diluted were added to each well of a 96-well plate to reach a final cell density of 1 × 10^6 CFU/mL and a final peptide concentration ranging from 100 to 0.78 μM (final volume 100 μL).

The next data set can be described thus: in vitro. The note with it: male, human, 90% fresh human serum.

Converted amounts (≈) assume the structure as drawn. Bridge positions count the residues as written; N and C are the ends. Square brackets hold non-standard residues; d marks the D form. Peptide text beside a SMILES is read from it.

For `CC[C@H](C)[C@H](NC(=O)[C@H](CCCNC(=N)N)NC(=O)[C@@H]1CCCCn2cc(nn2)C[C@H](NC(=O)[C@H](Cc2ccccc2)NC(=O)[C@H](Cc2c[nH]c3ccccc23)NC(=O)[C@@H]2CCCN2C(=O)[C@@H](NC(=O)[C@@H](N)Cc2ccccc2)C(C)C)C(=O)N[C@@H](CCCCN)C(=O)N[C@@H](Cc2ccccc2)C(=O)NC(CC(C)C)C(=O)N1)C(=O)N[C@@H](CC(C)C)C(N)=O` (stereo in doubt) [compound 17], the θ222/θ208 in data set [1] (CD in DOPE/DOPG/CL SUVs) came to 1.7; in data set [1] (CD in DOPG/CL SUVs) it was 1.9.

Usually half-life stands for how long it takes for the measured level to halve. Read a low half-life as rapid decline. What is called amount remaining is what is left of the initial amount, in per cent. A higher amount remaining goes with greater stability. With `CC[C@H](C)[C@H](NC(=O)[C@H](CCCNC(=N)N)NC(=O)[C@@H]1CCC(=O)NCCCC[C@H](NC(=O)[C@H](Cc2ccccc2)NC(=O)[C@H](Cc2c[nH]c3ccccc23)NC(=O)[C@@H]2CCCN2C(=O)[C@@H](NC(=O)[C@@H](N)Cc2ccccc2)C(C)C)C(=O)N[C@@H](CCCCN)C(=O)N[C@@H](Cc2ccccc2)C(=O)N[C@H](CC(C)C)C(=O)N1)C(=O)N[C@@H](CC(C)C)C(N)=O` [compound 12] (H-FVPWFKKF[dL]ERIL-NH2; lactam 6-10), the “time within which the MRSA strain was killed” value in data set [2] is reported as no more than 30 min. In addition, the “MIC S. aureus ATCC 43300 (MRSA)” value in data set [3] amounted to 12.5 µM (≈ 21.3 µg/mL). In the data set “in vitro”, this molecule gave a half-life at 0.2 mM of roughly 6 h and a share remaining at 1.5 h, 0.2 mM of roughly 70%.

(Values after paper PMC8389922, “First-in-Class Cyclic Temporin L Analogue: Design, Synthesis, and Antimicrobial Assessment” (Journal of Medicinal Chemistry, 2021).)
